Laboratory results: ChEMBL document CHEMBL1156674, “Exploration of physicochemical properties and molecular modelling studies of 2-sulfonyl-phenyl-3-phenyl-indole analogs as cyclooxygenase-2 inhibitors” (Eur J Med Chem, 2008)

Biological target: T1, Prostaglandin G/H synthase 2 (Homo sapiens, UniProt P35354)
T1 sequence (P35354 whole entry): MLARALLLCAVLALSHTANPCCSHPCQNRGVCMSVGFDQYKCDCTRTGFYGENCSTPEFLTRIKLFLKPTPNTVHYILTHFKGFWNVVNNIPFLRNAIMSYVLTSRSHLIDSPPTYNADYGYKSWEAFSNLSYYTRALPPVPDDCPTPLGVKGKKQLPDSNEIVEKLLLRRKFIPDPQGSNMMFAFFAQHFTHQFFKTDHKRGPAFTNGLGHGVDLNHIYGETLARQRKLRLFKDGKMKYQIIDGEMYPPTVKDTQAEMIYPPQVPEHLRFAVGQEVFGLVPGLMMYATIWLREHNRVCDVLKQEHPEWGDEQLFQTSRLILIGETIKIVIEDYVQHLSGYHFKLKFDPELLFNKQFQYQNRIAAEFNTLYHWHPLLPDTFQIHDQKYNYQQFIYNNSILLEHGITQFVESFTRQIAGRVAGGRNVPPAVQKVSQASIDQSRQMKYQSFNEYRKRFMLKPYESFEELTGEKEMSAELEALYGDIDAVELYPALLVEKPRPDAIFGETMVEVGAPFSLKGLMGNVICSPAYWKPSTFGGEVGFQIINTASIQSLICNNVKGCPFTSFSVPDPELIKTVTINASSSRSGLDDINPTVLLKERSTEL

Compound	IC50	IC50 (read-out: IC50)
COc1ccc(-c2c(-c3ccc(S(C)(=O)=O)cc3)[nH]c3ccccc23)cc1	0.02 nM	–
CS(=O)(=O)c1ccc(-c2[nH]c3ccccc3c2-c2ccccc2)cc1	0.6 nM	–
NS(=O)(=O)c1ccc(-c2[nH]c3ccccc3c2-c2ccc(F)cc2)cc1	–	5.15 nM
NS(=O)(=O)c1ccc(-c2[nH]c3ccc(F)cc3c2-c2ccccc2)cc1	–	2 nM
NS(=O)(=O)c1ccc(-c2[nH]c3ccc(Cl)cc3c2-c2ccccc2)cc1	0.14 nM	–
NS(=O)(=O)c1ccc(-c2[nH]c3ccc(Cl)cc3c2-c2ccc(Cl)cc2)cc1	0.54 nM	–
CS(=O)(=O)c1ccc(-c2[nH]c3ccc(Cl)cc3c2-c2cccc(Cl)c2)cc1	–	0.8 nM
NS(=O)(=O)c1ccc(-c2[nH]c3ccc(Cl)cc3c2-c2ccccc2Cl)cc1	–	100 nM
NS(=O)(=O)c1ccc(-c2[nH]c3ccccc3c2-c2ccccc2)cc1	0.09 nM	–
CC(=O)NS(=O)(=O)c1ccc(-c2[nH]c3ccccc3c2-c2ccccc2)cc1	–	0.18 nM
NS(=O)(=O)c1ccc(-c2[nH]c3ccc(Br)cc3c2-c2ccccc2)cc1	–	5 nM
CS(=O)(=O)c1ccc(-c2[nH]c3ccccc3c2-c2ccc(Br)cc2)cc1	0.37 nM	–
Cc1ccc(-c2c(-c3ccc(S(N)(=O)=O)cc3)[nH]c3ccccc23)cc1	–	0.07 nM
Cc1ccc(-c2c(-c3ccc(S(N)(=O)=O)cc3)[nH]c3ccccc23)cc1C	1.46 nM	–
CS(=O)(=O)c1ccc(-c2[nH]c3ccccc3c2-c2ccc(Cl)cc2)cc1	146 nM	–
NS(=O)(=O)c1ccc(-c2[nH]c3ccc(Cl)cc3c2-c2cccc(Cl)c2)cc1	–	3.13 nM
Cc1ccc(-c2c(-c3ccc(S(C)(=O)=O)cc3)[nH]c3ccccc23)cc1	0.09 nM	–
NS(=O)(=O)c1ccc(-c2[nH]c3ccccc3c2-c2ccc(Cl)cc2)cc1	–	33.5 nM
CS(=O)(=O)c1ccc(-c2[nH]c3ccc(Cl)cc3c2-c2ccccc2Cl)cc1	–	10 nM
Cc1ccc(-c2c(-c3ccc(S(C)(=O)=O)cc3)[nH]c3ccccc23)cc1C	–	0.17 nM
CS(=O)(=O)c1ccc(-c2[nH]c3ccc(F)cc3c2-c2ccccc2)cc1	–	5 nM
Cc1ccc2[nH]c(-c3ccc(S(N)(=O)=O)cc3)c(-c3ccccc3)c2c1	0.02 nM	–
Cc1ccc2[nH]c(-c3ccc(S(C)(=O)=O)cc3)c(-c3ccccc3)c2c1	0.28 nM	–
NS(=O)(=O)c1ccc(-c2[nH]c3ccccc3c2-c2ccc(O)cc2)cc1	6.44 nM	–
CS(=O)(=O)c1ccc(-c2[nH]c3ccc(Cl)cc3c2-c2ccc(Cl)cc2)cc1	–	85.1 nM
CS(=O)(=O)c1ccc(-c2[nH]c3ccc(Br)cc3c2-c2ccccc2)cc1	1.41 nM	–
